Laboratory results published in article PMC11945486, “TAS1R2/TAS1R3 Single-Nucleotide Polymorphisms Affect Sweet Taste Receptor Activation by Sweeteners: The SWEET Project” (Nutrients, 2025).
No end group written: not given here.

T1: human TAS1R2-R317P/TAS1R3-WT (Homo sapiens, UniProt Q7RTX0+Q8TE23, R317P)
T1 construct: expressed in transfected cells; host or cells: HEK293T-Gα16gust44
T1 sequence (Q8TE23 20-839 R317P): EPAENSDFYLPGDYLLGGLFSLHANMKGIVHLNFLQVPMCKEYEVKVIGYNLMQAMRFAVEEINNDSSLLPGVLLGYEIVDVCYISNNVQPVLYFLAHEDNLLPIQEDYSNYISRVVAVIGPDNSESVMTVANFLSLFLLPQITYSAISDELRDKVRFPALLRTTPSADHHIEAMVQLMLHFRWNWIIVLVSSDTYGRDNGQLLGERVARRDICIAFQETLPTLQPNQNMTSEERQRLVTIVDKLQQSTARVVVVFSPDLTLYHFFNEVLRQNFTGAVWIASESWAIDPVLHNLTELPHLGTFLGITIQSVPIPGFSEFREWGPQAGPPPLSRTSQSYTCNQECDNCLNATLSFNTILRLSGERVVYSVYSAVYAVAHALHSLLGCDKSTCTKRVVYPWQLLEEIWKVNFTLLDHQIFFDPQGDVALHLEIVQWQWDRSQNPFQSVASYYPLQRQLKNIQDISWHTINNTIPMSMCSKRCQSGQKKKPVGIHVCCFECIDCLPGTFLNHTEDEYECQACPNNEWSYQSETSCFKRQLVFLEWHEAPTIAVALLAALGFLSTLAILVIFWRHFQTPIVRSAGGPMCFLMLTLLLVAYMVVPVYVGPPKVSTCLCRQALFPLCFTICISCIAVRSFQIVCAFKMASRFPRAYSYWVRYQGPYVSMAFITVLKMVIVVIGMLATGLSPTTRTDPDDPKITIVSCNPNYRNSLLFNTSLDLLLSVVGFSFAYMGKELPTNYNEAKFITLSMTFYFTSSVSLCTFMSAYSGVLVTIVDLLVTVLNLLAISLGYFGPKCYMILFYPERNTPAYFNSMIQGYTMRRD
T1 sequence (Q7RTX0 21-852): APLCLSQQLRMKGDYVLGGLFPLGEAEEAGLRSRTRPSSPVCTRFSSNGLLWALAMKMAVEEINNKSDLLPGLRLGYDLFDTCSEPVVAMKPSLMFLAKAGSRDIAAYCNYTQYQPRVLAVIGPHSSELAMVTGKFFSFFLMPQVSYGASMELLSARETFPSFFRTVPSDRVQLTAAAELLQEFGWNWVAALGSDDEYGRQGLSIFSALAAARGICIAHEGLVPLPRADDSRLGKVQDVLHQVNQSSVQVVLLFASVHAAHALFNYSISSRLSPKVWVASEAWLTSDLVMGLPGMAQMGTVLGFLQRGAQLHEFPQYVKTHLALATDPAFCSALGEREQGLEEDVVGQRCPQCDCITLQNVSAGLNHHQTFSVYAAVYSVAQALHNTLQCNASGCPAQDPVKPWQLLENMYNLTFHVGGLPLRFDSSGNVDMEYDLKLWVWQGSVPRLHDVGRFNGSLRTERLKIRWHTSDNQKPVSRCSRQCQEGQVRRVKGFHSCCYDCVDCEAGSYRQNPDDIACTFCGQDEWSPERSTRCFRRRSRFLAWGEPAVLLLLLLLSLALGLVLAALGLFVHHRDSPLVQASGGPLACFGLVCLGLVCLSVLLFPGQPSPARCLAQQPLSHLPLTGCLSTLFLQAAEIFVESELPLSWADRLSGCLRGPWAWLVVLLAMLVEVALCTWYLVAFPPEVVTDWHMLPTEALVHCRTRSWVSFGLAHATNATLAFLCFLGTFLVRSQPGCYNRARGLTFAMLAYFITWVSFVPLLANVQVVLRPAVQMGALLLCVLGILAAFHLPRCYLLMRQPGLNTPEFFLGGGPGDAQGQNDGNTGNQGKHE

B1: thaumatin (protein)
chain: ATFEIVNRCSYTVWAAASKGDAALDAGGRQLNSGESWTINVEPGTKGGKIWARTDCYFDDSGSGICKTGDCGGLLRCKRFGRPPTTLAEFSLNQYGKDYIDISNIKGFNVPMDFSPTTRGCRGVRCAADIVGQCPAKLKAPGGGCNDACTVFQTSEYCCTTGKCGPTEYSRFFKRLCPDAFSYVLDKPTTVTCPGSSNYRVTFCPTA
modifications: Eight disulfides
notes: sweet-tasting plant protein, E957

Target: T1, human TAS1R2-R317P/TAS1R3-WT
Experiment: Calcium mobilisation assay, TAS1R2 variant R317P with TAS1R3-WT
Assay type: cell-based
Details: for Max ΔF/F0: maximal signal amplitude
Description: The coding sequences for TAS1R2 and TAS1R3 were commercially synthesised, and the human codon was optimised for expression in human cells. The coding sequences of human TAS1R2 and TAS1R3 were subcloned and inserted into the mammalian expression vectors pcDNA6/myc-HisA and pcDNA4/myc-HisA (Invitrogen; Thermo Fisher Scientific; Illkirch, France) between the EcoRI and NotI restriction sites, generating the plasmids pcDNA6-TAS1R2 and pcDNA4-TAS1R3, respectively. To increase protein expression in mammalian cells, an upstream start codon was used, which was a sequence called MAX, corresponding to the QBI SP163 element also described in pcDNA4-HisMax (Invitrogen; Thermo Fisher Scientific; Illkirch, France). To measure the expression level of the receptor by immunohistochemistry, we used the FLAG sequence ([…]) in the C-terminal position, which encodes the FLAG tag epitope. SNP variants of TAS1R2 and TAS1R3 were constructed based on […], respectively, using site-directed mutagenesis (Genewiz; Leipzig, Germany).
The HEK293T cells were kindly provided by Jay P. Slack (Givaudan Flavors Corporation; Cincinnati, OH, USA). HEK293T cells stably transfected with Gα16gust44 [43, 67] were seeded in poly-D-lysine-coated clear-bottom black 96-well plates (0.35 × 10^5 cells/well) in high-glucose DMEM supplemented with 2 mM GlutaMAX, 10% dialysed foetal bovine serum with penicillin/streptomycin and G418 (400 μg/mL) at 37 °C and 6.3% CO2 in a humidified atmosphere as previously reported. […] As a negative control, HEK293T cells were mock-transfected with the empty expression vector. After a further 24 h of incubation, the HEK293T cells were washed with C1 buffer (130 mM NaCl, 5 mM KCl, 10 mM HEPES pH 7.4 and 2 mM CaCl2). The 96-well plates containing the cells were then stimulated with sweet-tasting compounds. […] Different concentration ranges were tested depending on the sweet compound injected. The Ca^2+ changes were expressed as fractional changes in fluorescent light intensity: ΔF/F = (F − F0)/F0, where F was the fluorescent light intensity at each point, and F0 was the value of emitted fluorescent light prior to stimulus application. To calculate dose–response relationships, the changes in fluorescence upon stimulus application were averaged, mock-subtracted and baseline-corrected. The dose–response data obtained were adjusted using a 4-parameter logistic equation. The half-maximal effective concentrations (EC50 values) and maximal signal amplitudes were calculated using SigmaPlot software (version 15.0) (Systat Software; San Jose, CA, USA).
For in vitro calcium mobilisation assay performed on hTAS1R2-SNPs, hTAS1R3-SNPs and mTAS1R3-I60T, 6 to 7 concentrations were tested for each sweet compound, plus buffer alone. All concentration–receptor combinations were measured in duplicate, and each experiment was repeated at least 4 times (8 wells/concentration). Results were expressed for each concentration as ΔF/F mean ± SEM and represented as dose–response curves.

Molecule | EC50 [µM] | R1 = Variant EC50/WT EC50 | Max ΔF/F0
CC1=CC(=O)NS(=O)(=O)O1 [Acesulfame K, acesulfame K] | 685 ± 41 | 1.0 | 0.42 ± 0.01
O=S(=O)(O)NC1CCCCC1 [Cyclamate, cyclamate] | 2860 ± 62 | – | –
C[C@H](CC[C@@H](O[C@@H]1O[C@H](CO[C@@H]2O[C@H](CO)[C@@H](O)[C@H](O)[C@H]2O)[C@@H](O)[C@H](O)[C@H]1O[C@@H]1O[C@H](CO)[C@@H](O)[C@H](O)[C@H]1O)C(C)(C)O)[C@H]1CC[C@@]2(C)[C@@H]3CC=C4[C@@H](CC[C@H](O[C@@H]5O[C@H](CO[C@@H]6O[C@H](CO)[C@@H](O)[C@H](O)[C@H]6O)[C@@H](O)[C@H](O)[C@H]5O)C4(C)C)[C@]3(C)[C@H](O)C[C@]12C [Mogroside V, mogroside V] | 27.9 ± 2.5 | 1.6 | 1.51 ± 0.05
COc1ccc(CCC(=O)c2c(O)cc(O[C@@H]3O[C@H](CO)[C@@H](O)[C@H](O)[C@H]3O[C@@H]3O[C@@H](C)[C@H](O)[C@@H](O)[C@H]3O)cc2O)cc1O [NHDC, neohesperidin dihydrochalcone] | 171 ± 26.2 | 2.2 | 0.58 ± 0.04
COC(=O)[C@H](Cc1ccccc1)NC(=O)[C@H](CC(=O)O)NCCC(C)(C)C [Neotame] | 0.86 ± 0.16 | 1.0 | 0.63 ± 0.04
C=C(C)[C@@H]1CC=C(/C=N/O)CC1 [Perillartine, perillartine] | 35.2 ± 2.2 | 2.0 | 1.16 ± 0.03
C=C1C[C@@]23CC[C@H]4[C@@](C)(CCC[C@@]4(C)C(=O)O[C@@H]4O[C@H](CO)[C@@H](O)[C@H](O[C@@H]5O[C@H](CO)[C@@H](O)[C@H](O)[C@H]5O)[C@H]4O[C@@H]4O[C@H](CO)[C@@H](O)[C@H](O)[C@H]4O)[C@@H]2CC[C@]1(O[C@@H]1O[C@H](CO)[C@@H](O)[C@H](O[C@@H]2O[C@H](CO)[C@@H](O)[C@H](O)[C@H]2O)[C@H]1O[C@@H]1O[C@H](CO)[C@@H](O)[C@H](O)[C@H]1O)C3 [Rebaudioside M, rebaudioside M] | 26.9 ± 0.5 | 1.6 | 1.19 ± 0.01
OC[C@H]1O[C@H](O[C@]2(CCl)O[C@H](CCl)[C@@H](O)[C@@H]2O)[C@H](O)[C@@H](O)[C@H]1Cl [Sucralose] | 98 ± 19 | 1.1 | 0.76 ± 0.06
brazzein (QDKCKKVYENYPVSKCQLANQCNYDCKLDKHARSGECFYDEKRNLQCICDYCEY; ends and bridges not checked; cysteine pairing not given here; UniProt P56552 1-54, looked up) [sweet-tasting protein obtained by recombinant production using the yeast Pichia pastoris] | – | 2.5 | 0.91 ± 0.02
thaumatin | – | 2.5 | 0.42 ± 0.01
B1 | 18.9 ± 0.7 | – | –
